Data taken from patent US12565511B2, “SOS1 inhibitor containing phosphorus” (Chia Tai Tianqing Pharmaceutical Group Co., Ltd., priority 2020, dated 2026).

How the values were obtained:
[1] = system: K562 cells; test: Assay for proliferation inhibitory activity of K562 cells; assay type: cell-based; conditions: Homo sapiens, 72 h, CCK-8, read-out: K562 cell proliferation inhibition IC50
Procedure: Test Example 4 Assay for Proliferation Inhibitory Activity of K562 Cells
The K562 cell line can be purchased from the American Type Culture Collection (ATCC).
The K562 cells in a good growth state were added to a centrifuge tube with the cell density adjusted to 3×10^4/mL, and seeded on a 96-well plate (100 μL/well). The cells were cultured overnight in a cell incubator, the compound was loaded using a nanoliter pipettor to allow the final compound concentration to be 10000 nM to 4.6 nM, 2 replicate wells were set and control was set.

[2] = molecular target: T1, KRAS-G12C/SOS1 (Homo sapiens, UniProt Q07889); test: biochemical
T1 sequence (Q07889 564-1049): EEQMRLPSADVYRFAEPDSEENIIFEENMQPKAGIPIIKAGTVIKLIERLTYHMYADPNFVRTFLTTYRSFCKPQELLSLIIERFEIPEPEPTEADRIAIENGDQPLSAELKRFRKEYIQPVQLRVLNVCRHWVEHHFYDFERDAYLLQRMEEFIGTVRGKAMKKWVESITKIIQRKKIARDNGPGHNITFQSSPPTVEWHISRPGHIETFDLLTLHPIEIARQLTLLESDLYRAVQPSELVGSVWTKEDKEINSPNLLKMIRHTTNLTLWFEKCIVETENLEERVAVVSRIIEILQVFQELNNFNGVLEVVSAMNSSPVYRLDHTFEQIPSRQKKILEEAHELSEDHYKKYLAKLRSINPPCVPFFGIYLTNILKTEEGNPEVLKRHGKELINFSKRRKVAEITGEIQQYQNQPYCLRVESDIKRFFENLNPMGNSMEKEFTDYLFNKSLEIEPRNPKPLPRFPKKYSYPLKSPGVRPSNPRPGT

[3] = molecular target: T2, SOS1cat / KRAS G12C (Homo sapiens, UniProt Q07889); test: Guanine nucleotide exchange test (HTRF); assay type: biochemical; conditions: SOS1cat-mediated loading of EDA-GTP-DY-647P1 on His-KRAS G12C, 20° C.; read-out: Nucleotide conversion of HTRF IC50
T2 sequence (Q07889 564-1049): T1 sequence (Q07889 564-1049)
Procedure: Test Example 2 Guanine Nucleotide Exchange Test
This test quantitatively investigates the ability of SOS to mediate KRAS activation. KRAS G12C with a His tag was added to the system, anti-His antibody labeled with lanthanide Eu was combined with the system, then auxiliary protein SOS1cat and GTP analogue EDA-GTP-DY-647P1 with fluorophore were added thereto, the GTP analogue with fluorophore was loaded on KRAS G12C with the assistance of the auxiliary protein, and then energy resonance transfer occurred between Anti-6HS-Cryptate (FRET donor) and EDA-GTP-DY-647P1 (FRET acceptor).
However, after pretreatment with SOS1 inhibitor compounds, the ability of SOS1 to bind and mediate KRAS activation was weakened, and the ability of FRET between donor and acceptor was weakened.
Test buffer was prepared with the following components: HEPES pH 7.4: 20 mM; NaCl: 150 mM; MgCl2: 0.5 mM; DTT: 2 mM; BSA: 0.05%; and Igepal: 0.0025%.
KRAS G12C working solution, SOS1cat working solution and blank control solution were prepared with the test buffers; wherein the KRAS G12C working solution contained 100 nM His-KRAS G12C and 2 nM […]; the SOS1cat working solution contained 20 nM SOS1cat and 200 nM EDA-GTP-DY-647P1; and the blank control solution contained 100 nM EDA-GTP-DY-647P1.
The whole test procedures were completed at 20° C.

Compound	IC50 [1] [nM]	IC50 [2] [nM]	IC50 [3] [nM]
COc1cc2nc(C)nc(N[C@H](C)c3cccc(C(F)(F)C(C)(C)O)c3)c2cc1P1(=O)CCOCC1 [Example 71]	139	35	–
Cc1nc(N[C@H](C)c2cc(N)cc(C(F)(F)F)c2)c2cc(P(C)(C)=O)c(O)cc2n1 [Example 44]	–	–	724
CCP(=O)(CC)c1cc2c(N[C@H](C)c3cccc(C(F)F)c3F)nc(C)nc2cc1OC [Example 34]	–	612	–
CC(=O)N1CCP(=O)(c2ccc3nc(CF)nc(N[C@H](C)c4cccc(C(F)F)c4F)c3c2)CC1 [Example 31]	513	129	–
COc1cc2nc(C)nc(N[C@H](C)c3cccc(C(F)F)c3F)c2cc1P1(=O)CCN(S(C)(=O)=O)CC1 [Example 63]	137	38	–
Cc1nc(N[C@H](C)c2cccc(C(C)(F)F)c2F)c2cc(P3(=O)CCN(C(=O)C4CCC4)CC3)ncc2n1 [Example 52]	95	–	455
Cc1nc(N[C@H](C)c2cccc(C(C)(F)F)c2F)c2cc(P3(=O)CCN(CC4CC4)CC3)ncc2n1 [Example 50]	334	–	456
Cc1nc(N[C@H](C)c2cc(N)cc(C(F)(F)F)c2C)c2cc(P3(=O)CCN(C(=O)C4(F)CC4)CC3)ncc2n1 [Example 59]	21	–	448
COc1cc2nc(C)nc(N[C@H](C)c3cccc(C(F)F)c3C)c2cc1P1(=O)CCOCC1 [Example 66]	271	79	–
Cc1nc(N[C@H](C)c2cccc(C(C)(F)F)c2F)c2cc(P3(=O)CCN(S(C)(=O)=O)CC3)ncc2n1 [Example 23]	118	–	283
COc1cc2nc(C)nc(N[C@H](C)c3cccc(C(C)(F)F)c3F)c2cc1P1(=O)CCOCC1 [Example 69]	310	49	–
COc1cc2nc(C)nc(N[C@H](C)c3cccc(C(F)(F)F)c3C)c2cc1P1(=O)CCOCC1 [Example 67]	264	71	–
[2H]C([2H])([2H])Oc1cc2nc(C)nc(N[C@H](C)c3cc(N)cc(C(F)(F)F)c3)c2cc1P(C)(C)=O [Example 47]	440	–	573
COc1cc2nc(CF)nc(N[C@H](C)c3cccc(C(F)F)c3F)c2cc1P1(=O)CCN(C(C)=O)CC1 [Example 30]	302	68	–
Cc1nc(N[C@H](C)c2cccc(C(F)(F)F)c2)c2cc(P3(=O)CCN(C)CC3)ncc2n1 [Example 49]	2150	–	1470
Cc1nc(N[C@H](C)c2cccc(C(F)F)c2F)c2cc(P3(=O)CCN(CC#N)CC3)ccc2n1 [Example 56]	507	88	–
Cc1nc(N[C@H](CF)c2cccc(C(F)(F)F)c2C)c2cc(P3(=O)CCN(S(C)(=O)=O)CC3)ccc2n1 [Example 26]	–	103	–
COc1cc2nc(C)nc(N[C@H](C)c3cccc(C(F)(F)F)c3F)c2cc1P1(=O)CCOCC1 [Example 68]	720	90	–
Cc1nc(N[C@H](C)c2cccc(C(F)F)c2F)c2cc(P3(=O)CCN(C4COC4)CC3)ncc2n1 [Example 51]	282	100	–
[2H]C(C)(Nc1nc(C)nc2cnc(P3(=O)CCN(S(C)(=O)=O)CC3)cc12)c1cccc(C(F)(F)F)c1F (stereo not drawn) [Example 25]	247	86	–
Cc1nc(N[C@H](C)c2cccc(C(F)(F)F)c2F)c2cc(P3(=O)CCOCC3)nc(C#N)c2n1 [Example 41]	570	180	–
Cc1nc(N[C@H](C)c2cccc(C(F)F)c2F)c2cc(P3(=O)CCOCC3)c(F)cc2n1 [Example 38]	477	115	–
Cc1nc(N[C@H](C)c2cccc(C(F)F)c2F)c2cc(P3(=O)CCOCC3)ncc2n1 [Example 35]	574	156	–
Cc1nc(N[C@H](C)c2cccc(C(F)(F)F)c2C)c2cc(P3(=O)CCOCC3)c(=O)n(C)c2n1 [Example 40]	514	179	–

Compound	IC50 [1] [nM]	IC50 [2] [nM]	IC50 [3] [nM]
COCCN1CCP(=O)(c2cc3c(N[C@H](C)c4cccc(C(F)(F)F)c4)nc(C)nc3cn2)CC1 [Example 48]	1570	–	895
C[C@@H](Nc1nc(CF)nc2cnc(P3(=O)CCN(S(C)(=O)=O)CC3)cc12)c1cccc(C(F)(F)F)c1F [Example 24]	177	–	–
COC(=O)N1CCP(=O)(c2cc3c(N[C@H](C)c4cccc(C(F)F)c4F)nc(C)nc3cn2)CC1 [Example 53]	93	–	504
CNCc1ccccc1-c1csc([C@@H](C)Nc2nc(C)nc3cnc(P4(=O)CCN(C(=O)C5CC5)CC4)cc23)c1 [Example 54]	84	–	486
Cc1nc(N[C@H](C)c2cc(N)cc(C(F)(F)F)c2C)c2cc(P3(=O)CCN(C(=O)C(C)(C)F)CC3)ncc2n1 [Example 60]	30	–	433
Cc1nc(N[C@H](C)c2cccc(C(F)F)c2F)c2cc(P3(=O)CCN(C(=O)N(C)C)CC3)ncc2n1 [Example 55]	280	87	–
Cc1nc(N[C@H](C)c2cccc(C(F)F)c2F)c2cc(P3(=O)CCN(CC(=O)N(C)C)CC3)ccc2n1 [Example 57]	2170	204	–
CC(=O)N1CCP(=O)(c2ccc3nc(Cl)nc(N[C@H](C)c4cccc(C(F)F)c4F)c3c2)CC1 [Example 33]	250	64	–
Cc1nc(N[C@H](C)c2cccc3c(F)coc23)c2cc(P3(=O)CCN(S(C)(=O)=O)CC3)ccc2n1 [Example 61]	421	63	–
Cc1nc(N[C@H](C)c2cc(N)cc(C(F)(F)F)c2)c2cc(P(C)(C)=O)c(OCF)cc2n1 [Example 46]	491	–	498
Cc1nc(N[C@H](C)c2cccc(C(F)(F)F)c2C)c2cc(P3(=O)CCN(S(C)(=O)=O)CC3)ccc2n1 [Example 62]	155	45	–
COc1cc2nc(C)nc(N[C@H](C)c3cccc(C(F)(F)CO)c3)c2cc1P1(=O)CCOCC1 [Example 70]	257	44	–
COc1cc2ncnc(N[C@H](C)c3cccc(C(F)F)c3F)c2cc1P1(=O)CCN(S(C)(=O)=O)CC1 [Example 29]	320	63	–
C[C@@H](Nc1ncnc2cnc(P3(=O)CCN(S(C)(=O)=O)CC3)cc12)c1cccc(C(C)(F)F)c1F [Example 64]	281	64	–
Cc1nc(N[C@H](C)c2cccc(C(F)(F)F)c2F)c2cc(P3(=O)CCN(S(C)(=O)=O)CC3)ncc2n1 [Example 19]	206	41	–
Cc1nc(N[C@H](C)c2cc(N)cc(C(F)(F)F)c2C)c2cc(P3(=O)CCN(C(=O)C(C)C)CC3)ncc2n1 [Example 58]	31	–	433
Cc1nc(N[C@H](C)c2cccc(C(F)F)c2F)c2cc(P3(=O)CCOCC3)cc(F)c2n1 [Example 39]	561	103	–
COc1cc2ncnc(N[C@H](C)c3cccc(C(F)F)c3F)c2cc1P1(=O)CCN(C(C)=O)CC1 [Example 28]	239	50	–
Cc1nc(N[C@H](C)c2cccc3c2OCC3(F)F)c2cc(P3(=O)CCN(S(C)(=O)=O)CC3)ncc2n1 [Example 22]	836	63	–
Cc1nc(N[C@H](C)c2cc(N)cc(C(F)(F)F)c2)c2cc(P(C)(C)=O)c(OC(F)F)cc2n1 [Example 45]	1080	–	694
CC(=O)N1CCP(=O)(c2cc3c(N[C@H](C)c4cccc(C(F)F)c4F)nc(CF)nc3cc2F)CC1 [Example 32]	155	90	–
Cc1nc(N[C@H](C)c2cccc(C(F)(F)F)c2F)c2cc(P3(=O)CCOCC3)ccc2n1 [Example 37]	362	97	–
Cc1nc(N[C@H](C)c2cccc(C(F)F)c2F)c2cc(P3(=O)CCOCC3)ccc2n1 [Example 36]	346	94	–
